Source: patent US11198850B2, “Method for manufacturing telencephalon or progenitor tissue thereof” (RIKEN, priority 2013, dated 2021)

System: hESC-derived hippocampal neurons
Test: Whole cell patch clamp of hippocampal neurons from dispersion culture of hESC-derived hippocampal tissue (sEPSC)
Format: cell-based, human
Conditions: DNQX 10 μM; voltage held at −60 mV; day 53 after dispersion
Description: By a method similar to that in Example 7-1, continuous hippocampal tissues were subjected to dispersion culture. In this experiment, flat plane culture was performed by seeding on a glass or plastic dish, slide and the like. For culture, a glass or plastic surface was coated with poly-D-Lysine (100 μg/ml) at 37° C. for 3 hr, and Laminin 20 μg/ml/Fibronectin 8 μg/ml overnight at 37° C.
The culture medium used for day 1-2 of dispersion was Neurobasal medium (Gibco/Invitrogen) added with 2% B27 supplement without vitamin A (Gibco/Invitrogen), 2 mM L-glutamine, 1% FBS, 20 ng/ml BDNF, 20 ng/ml NT-3, and 10 μM Y-27632. From day 3 of culture, Neurobasal medium (Gibco/Invitrogen) added with 2% B27 supplement without vitamin A (Gibco/Invitrogen), 2 mM L-glutamine, 10% FBS, BDNF 20 ng/ml, and NT-3 20 ng/ml was used and a half amount of the medium was exchanged every three days. […] Also, the cells obtained by dispersion culture by the same method were electrophysiologically analyzed by the Patch clamp technique. […] For sEPSC, time-course electric current was measured when the voltage was maintained at −60 mV, and the medicament used was DNQX (sigma, D0540) at a final concentration of 10 μM. As the action potential, the membrane potential upon […] stimulation was measured.

O=[N+]([O-])c1cc2nc(O)c(O)nc2cc1[N+](=O)[O-] [DNQX]
spontaneous excitatory postsynaptic current (sEPSC): inhibited
